Converted amounts (≈) assume the structure as drawn. Like-named read-outs stand apart in the source and are kept apart here.
Key:
[1] = tested on: P. aeruginosa PA 27853 and resistant isolates MR1, MR2, MR3; assay: microbe, parasite or virus in culture; assay type: cell-based, Pseudomonas aeruginosa; details: Pseudomonas aeruginosa
Method: (§1) Minimum inhibitory concentration (MIC)/minimum bactericidal concentration (MBC) were determined in Ca-MHB using a modified macrobroth dilution method as described by the CLSI (10). The final concentration of bacteria in each macrobroth dilution tube was approximately 5×10^5 cfu/ml of Ca-MHB. Serial twofold dilutions of meropenem were used. […] Samples (50 μl) from clear tubes and the cloudy tube with the highest drug concentration were plated on Mueller-Hinton agar (MHA) plates (Hardy Diagnostics, Santa Maria, Calif.). […] Drug carry-over effect was assessed by visual inspection of the distribution of colonies on media plates. The studies were conducted in duplicate and repeated at least once on a separate day.

[2] = tested on: P. aeruginosa PA 27853 and resistant isolates MR1, MR2, MR3; assay: microbe, parasite or virus in culture; assay type: cell-based; details: Pseudomonas aeruginosa, Etest
[3] = tested on: amikacin resistant A. baumannii isolates; assay: Resistance confirmation, repeat susceptibility testing, amikacin; assay type: cell-based, Acinetobacter baumannii; details: for cross-resistance: amikacin resistant isolates
Method: The media plates were incubated at 35° C. for up to 24 (total population) and 72 hours (sub-populations with reduced susceptibility), then bacterial density from each sample was enumerated visually. The theoretical lower limit of detection was 400 CFU/ml.

[4] = tested on: A. baumannii ATCC BAA 747; assay: Time-kill studies and best-fit model, amikacin; assay type: cell-based, Acinetobacter baumannii
[5] = tested on: A. baumannii ATCC BAA 747; assay: MIC/MBC, modified macrobroth dilution; assay type: cell-based; details: Acinetobacter baumannii, BAA747; A. baumannii isolate (AB BAA 747)
Method: as §1, with “The” for “Minimum inhibitory concentration (MIC)/minimum bactericidal concentration (MBC) were determined in Ca-MHB using a modified macrobroth dilution method as described by the CLSI (10). The”

[6] = tested on: levofloxacin resistant P. aeruginosa isolates; assay: Susceptibility of levofloxacin resistant isolates, screening panel; assay type: cell-based, Pseudomonas aeruginosa
[7] = tested on: P. aeruginosa ATCC 27853; assay: MIC/MBC, modified macrobroth dilution; assay type: cell-based, Pseudomonas aeruginosa; details: P. aeruginosa ATCC 27853
Method: as §1, with “The” for “Minimum inhibitory concentration (MIC)/minimum bactericidal concentration (MBC) were determined in Ca-MHB using a modified macrobroth dilution method as described by the CLSI (10). The”

[8] = tested on: P. aeruginosa ATCC 27853; assay: Time-kill studies and model fit, levofloxacin; assay type: cell-based, Pseudomonas aeruginosa; details: for EC50: Pseudomonas aeruginosa
Method: An overnight culture of the isolate was diluted 30-fold with pre-warmed Ca-MHB and incubated further at 35 C until reaching late log phase growth. The bacterial suspension was diluted with Ca-MHB accordingly based on absorbance at 630 nm; 15 mL of the suspension was transferred to 50 mL sterile conical flasks each containing 1 mL of a drug solution at 16·the target concentration. The final concentration of the bacterial suspension in each flask at baseline was approximately 1×10^8 CFU/mL.
The high inoculum was used to simulate the bacterial load in a severe infection, e.g., nosocomial pneumonia. Furthermore, the high inoculum used would allow resistant sub-population(s) to be likely present at baseline. The experiment was conducted for 24 h in a shaker water bath set at 35° C. Serial samples (baseline, 0.5, 1, 2, 4, 8, 12, and 24 h) were obtained from each flask over 24 h to characterize the effect of various drug exposures on the total bacterial population.
Prior to culturing the bacteria quantitatively, the bacterial samples (0.5 mL) were centrifuged at 10,000 g for 15 min, and reconstituted with sterile normal saline to their original volumes in order to minimize drug carry-over effect. Total bacterial populations were quantified by spiral plating 10 serial dilutions of the samples (50 IL) onto Ca-MHA plates. The media plates were incubated in a humidified incubator (35° C. for 18-24 h, and the bacterial density from each sample was determined by CASBA-4 colony scanner/software (Spiral Biotech, Bethesda, Md.). The reliable limit of detection was 400 CFU/mL. The experiment was repeated once on a separate day.
The mathematical framework described Example 1 is used to predict whether a microbial population will be eradicated or survive under an antimicrobial pressure whose concentration over time follows a clinically realistic (time-periodic) profile. For absence of agent (placebo, C=0 Ig/mL) and by inspection in FIG. 13 it is determined that Nmax=10^9.4 CFU/mL. Using this value for Nmax standard nonlinear least squares (differential evolution of mathematica) is used to get a growth rate constant value Kg=0.22 h^−1.
It is assumed that Kg is the same for all bacterial sub-populations, owing to common basic physiology. For the highest agent concentration used (C=64 Ig/mL) there appears to be complete eradication of the entire microbial population after the third sample in time. Therefore, no experimental points beyond that are considered in the data fit. Further, it is assumed that the maximum kill rate, Kk, occurring at an antibiotic concentration high enough to saturate all bacterial target sites, is the same for all bacteria, namely Kk=Kb. […] The values of the remaining parameters are estimated using standard nonlinear least squares for concentrations C=0.5, . . . , 32 Ig/mL (Table 4).

[9] = strain MR1 (Placebo exposure, OprD−)
[10] = strain MR2 (Cmin/MIC 0.5, OprD− & Mex+)
[11] = strain MR3 (Cmin/MIC 1.7, OprD− & Mex+), read-out: MIC

CC1(C)S[C@@H]2[C@H](NC(=O)C(C(=O)O)c3ccccc3)C(=O)N2[C@H]1C(=O)O (stereo partly shown) [CAR, carbenicillin]
MIC ([1]; strain MR2 (Cmin/MIC 0.5, OprD− & Mex+), macrobroth method): 512 µg/mL (≈ 1350 µM) | MIC ([1]; strain MR3 (Cmin/MIC 1.7, OprD− & Mex+), macrobroth method, read-out: MIC): 512 µg/mL (≈ 1350 µM) | MIC ([1]; strain PA 27853, macrobroth method): 64 µg/mL (≈ 169 µM)

CC(C)(O/N=C(\C(=O)N[C@@H]1C(=O)N2C(C(=O)[O-])=C(C[n+]3ccccc3)CS[C@H]12)c1csc(N)n1)C(=O)O [CAZ, ceftazidime]
MIC [2, 9]: 1 µg/mL (≈ 1.83 µM) | MIC [2, 10]: 2 µg/mL (≈ 3.66 µM) | MIC [2, 11]: 4 µg/mL (≈ 7.32 µM) | MIC ([2]; strain PA 27853): 1 µg/mL (≈ 1.83 µM)

C[C@@H](O)[C@H]1C(=O)N2C(C(=O)O)=C(SCCN=CN)C[C@H]12 [IPM, imipenem]
MIC [2, 9]: > 32 µg/mL | MIC [2, 10]: > 32 µg/mL | MIC [2, 11]: 32 µg/mL (≈ 107 µM) | MIC ([2]; strain PA 27853): 3 µg/mL (≈ 10 µM)

CCN1CCN(C(=O)N[C@@H](C(=O)N[C@@H]2C(=O)N3[C@@H]2SC(C)(C)[C@@H]3C(=O)O)c2ccccc2)C(=O)C1=O [PIP, piperacillin]
MIC [2, 9]: 3 µg/mL (≈ 5.8 µM) | MIC [2, 10]: 8 µg/mL (≈ 15.5 µM) | MIC [2, 11]: 32 µg/mL (≈ 61.8 µM) | MIC ([2]; strain PA 27853): 3 µg/mL (≈ 5.8 µM)

NC[C@H]1O[C@H](O[C@H]2[C@H](O)[C@@H](O[C@H]3O[C@H](CO)[C@@H](O)[C@H](N)[C@H]3O)[C@H](N)C[C@@H]2N)[C@H](N)C[C@@H]1O [TOB, tobramycin]
MIC [2, 9]: 0.5 µg/mL (≈ 1.07 µM) | MIC [2, 10]: 0.5 µg/mL (≈ 1.07 µM) | MIC [2, 11]: 0.5 µg/mL (≈ 1.07 µM) | MIC ([2]; strain PA 27853): 0.5 µg/mL (≈ 1.07 µM) | cross-resistance [3]: observed

NCC[C@H](O)C(=O)N[C@@H]1C[C@H](N)[C@@H](O[C@H]2O[C@H](CN)[C@@H](O)[C@H](O)[C@H]2O)[C@H](O)[C@H]1O[C@H]1O[C@H](CO)[C@@H](O)[C@H](N)[C@H]1O [amikacin]
stability of resistance ([3]; resistant isolates from sub-optimal dosing regimens): phenotypically stable | H ([4]; AB BAA 747): 3.06 | Kk ([4]; AB BAA 747): 27.81 h⁻¹ | β ([4]; AB BAA 747): 50.09 | τ ([4]; AB BAA 747): 442 µL/min/mg | EC50 ([4]; Acinetobacter baumannii, BAA747, AB BAA 747, read-out: C50k): 1.56 µg/mL (≈ 2.66 µM) | concentrations with complete bacterial eradication ([4]; after 2 hours of drug exposure): > 16 mg/L | MBC [5]: 8 µg/mL (≈ 13.7 µM) | MIC [5]: 4 µg/mL (≈ 6.83 µM)

CO/N=C(\C(=O)N[C@@H]1C(=O)N2C(C(=O)[O-])=C(C[N+]3(C)CCCC3)CS[C@H]12)c1csc(N)n1 [cefepime]
cross-resistance [3]: not

O=C(O)c1cn(C2CC2)c2cc(N3CCNCC3)c(F)cc2c1=O [ciprofloxacin]
cross resistance, change in MIC ([6]; levofloxacin resistant isolates): ≥ 4 fold

C[C@H]1COc2c(N3CCN(C)CC3)c(F)cc3c(=O)c(C(=O)O)cn1c23 [levofloxacin]
increase in MIC compared to the parent strain ([6]; two random isolates from drug supplemented media plates): 16 fold | MIC [7]: 2 Ig/mL | MIC [2, 9]: 0.75 µg/mL (≈ 2.08 µM) | MIC [2, 10]: 4 µg/mL (≈ 11.1 µM) | MIC ([2]; strain PA 27853): 0.75 µg/mL (≈ 2.08 µM) | EC50 ([8]; ATCC27853, read-out: C50): 0.86 µg/mL (≈ 2.38 µM) | EC50 ([8]; ATCC27853, read-out: C50b): 39.4 µg/mL (≈ 109 µM) | C50A ([8]; model fit): 0.45 µg/mL | H ([8]; model fit): 1.7 | HA ([8]; model fit): 10 | Hb ([8]; model fit): 24 | MIC [1]: 6 µg/mL (≈ 16.6 µM)
